Assay results reported in patent US20180057505A1, “BICYCLIC HETEROARYL COMPOUNDS USEFUL AS INHIBITORS OF THE PAR-2 SIGNALING PATHWAY” (VERTEX PHARMACEUTICALS INCORPORATED, priority 2015, published 2018).

Tests used:
Assay type in all cases: cell-based
PAR2 (HT-29 cells) [1] = biological target: T1, PAR2 (HT-29 cells) (Homo sapiens, UniProt P55085); experiment: Ca FLIPR TETRA assay, ANTAGONIST mode, activator 8 μM SLIGKV; settings: HT-29 cells; activator 8 μM SLIGKV; Method A: maximal concentration of antagonist 0.1, 1 or 2 μM
T1 construct: host or cells: HT-29
T1 sequence (P55085 26-397): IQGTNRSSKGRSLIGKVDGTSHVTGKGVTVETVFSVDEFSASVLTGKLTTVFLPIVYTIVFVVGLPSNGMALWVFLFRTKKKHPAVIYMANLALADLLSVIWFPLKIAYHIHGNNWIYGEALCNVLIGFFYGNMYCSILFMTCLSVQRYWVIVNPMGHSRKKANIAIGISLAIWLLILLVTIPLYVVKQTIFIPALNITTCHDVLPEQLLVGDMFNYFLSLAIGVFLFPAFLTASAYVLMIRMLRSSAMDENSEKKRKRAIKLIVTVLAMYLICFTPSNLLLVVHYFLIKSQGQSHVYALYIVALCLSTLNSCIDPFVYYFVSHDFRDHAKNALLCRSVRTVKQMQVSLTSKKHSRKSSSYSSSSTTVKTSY
How it was run: (§1)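 Compounds are added to calcium 5-loaded HT-29 cells, read once for intrinsic Ca2+ activation, then incubated 30 min at room temperature. The same wells are then stimulated with a fixed final activator level and the Ca2+ response recorded on FLIPR Tetra.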

PAR2 (HT-29 cells) [2] = biological target: T1, PAR2 (HT-29 cells); experiment: Ca FLIPR TETRA assay, ANTAGONIST mode, activator 3.1 U/mL trypsin; settings: HT-29 cells; activator 3.1 U/mL trypsin; Method A: maximal concentration of antagonist 0.1, 1 or 2 μM
How it was run: as §1

[3] = test system: UTP-stimulated Ca2+ response in HT-29 cells; experiment: Ca FLIPR TETRA assay, ANTAGONIST mode, activator 0.6 μM UTP; settings: HT-29 cells, activator 0.6 μM UTP
How it was run: as §1

[4] = test system: Thrombin-stimulated Ca2+ response in HT-29 cells; experiment: Ca FLIPR TETRA assay, ANTAGONIST mode, activator 1 U/mL Thrombin; settings: HT-29 cells, activator 1 U/mL Thrombin
How it was run: as §1

SMILES	IC50 (PAR2 (HT-29 cells) [1]) [nM]	IC50 (PAR2 (HT-29 cells) [2]) [nM]	IC50 ([3]; Homo sapiens) [nM]	IC50 ([4]; Homo sapiens) [nM]	IC50 [3] [nM]	IC50 [4] [nM]
Cc1cc(C(=O)O)nc(N2CCN(C(=O)c3cc4nc(-c5ccc(Cl)c(F)c5)cc(C(C)(C)C)c4o3)C(C)(C)C2)c1 [Example I-494]	> 2000	0.1	> 2000	> 2000		
Cc1ccc(N2CCN(C(=O)c3cc4nc(-c5ccc(Cl)cc5)cc(C(C)(C)C)c4o3)C(C)(C)C2=O)nc1C(=O)O [Example I-495]	13	15	> 2000	> 2000		
Cc1nc(N2CCN(C(=O)c3cc4nc(C5CCC(C)(C)CC5)cc(C(C)(C)C)c4o3)C(C)(C)C2)ccc1C(=O)O [Example I-496]	0.4	0.6	> 2000	> 2000		
CC(C)(C)c1cc(-c2ccc(Cl)c(F)c2)nc2cc(C(=O)N3CCN(C(=O)CC4(C(=O)O)CCOCC4)CC3(C)C)oc12 [Example I-497]	2.2	2.2	> 2000	> 2000		
COc1nc(N2CCN(C(=O)c3cc4nc(-c5ccc(Cl)c(F)c5)cc(C(C)(C)C)c4o3)C(C)(C)C2)ccc1C(=O)O [Example I-498]	0.3	0.3	> 2000	> 2000		
CC(C)(C)c1cc(-c2ccc(Cl)cc2)nc2cc(C(=O)N3CCN(C(=O)CC4(C(=O)O)CCOCC4)CC3(C)C)oc12 [Example I-499]	3.6	5	> 2000	> 2000		
CC(C)(C)c1cc(-c2ccc(Cl)c(F)c2)nc2cc(C(=O)N3CCN(C(=O)[C@@H]4CCCC[C@@H]4C(=O)O)CC3(C)C)oc12 [Example I-500]	0.4	0.5	> 2000	> 2000		
CC(C)(C)c1cc(-c2ccc(Cl)c(F)c2)nc2cc(C(=O)N3CCN(c4nc(C(=O)O)ccc4F)CC3(C)C)oc12 [Example I-501]	0.1	0.1			> 2000	> 2000
CC(C)(C)c1cc(-c2ccc(Cl)cc2)nc2cc(C(=O)N3CCN(c4nc(C(=O)O)ccc4F)CC3(C)C)oc12 [Example I-502]	0.2	0.2			> 2000	> 2000
CC1(C)CCC(c2cc(C(C)(C)C)c3oc(C(=O)N4CCN(c5nc(C(=O)O)ccc5F)CC4(C)C)cc3n2)CC1 [Example I-503]	0.2	0.3			> 2000	> 2000
Cc1cc(C(=O)N2CCN(C(=O)c3cc4nc(-c5ccc(Cl)c(F)c5)cc(C(C)(C)C)c4o3)C(C)(C)C2)[nH]n1 [Example I-504]	1.2	1.7	> 2000	> 2000		
Cn1cnnc1N1CCN(C(=O)c2cc3nc(-c4ccc(Cl)cc4)cc(C(C)(C)C)c3o2)C(C)(C)C1 [Example I-505]	14	9.6	> 2000	> 2000		
CC(C)(C)c1cc(-c2ccc(Cl)c(F)c2)nc2cc(C(=O)N3CCN(C(=O)[C@@H]4CCCC[C@H]4C(=O)O)CC3(C)C)oc12 [Example I-506]	23	21	> 2000	> 2000		
CC(C)(C)c1cc(-c2ccc(Cl)c(F)c2)nc2cc(C(=O)N3CCN(C(=O)NS(=O)(=O)c4ccccc4)CC3(C)C)oc12 [Example I-507]	0.6	0.5	> 2000	> 2000		
CC(C)(C)c1cc(-c2ccc(Cl)c(F)c2)nc2cc(C(=O)N3CCN(S(C)(=O)=O)CC3(C)C)oc12 [Example I-508]	8.1	10	> 2000	> 2000		
CC1(C)CCC(c2cc(C(C)(C)C)c3oc(C(=O)N4CCN(C(=O)[C@H]5CC[C@@](C)(C(=O)OCOP(=O)(O)O)CC5)CC4(C)C)cc3n2)CC1 [Example I-509]	0.2	0.5	> 2000	> 2000		
CC(C)(C)c1cc(-c2ccc(Cl)c(F)c2)nc2cc(C(=O)N3CCN(c4ccc(C(=O)O)c(N)n4)CC3(C)C)oc12 [Example I-510]	0.3	0.8	> 2000	> 2000		
CC(C)(C)c1cc(-c2ccc(Cl)cc2)nc2cc(C(=O)N3CCN(C(=O)[C@@H]4CCCC[C@H]4C(=O)O)CC3(C)C)oc12 [Example I-511]	43	49.5	> 2000	> 2000		
CC(C)(C)c1cc(-c2ccc(Cl)c(F)c2)nc2cc(C(=O)N3CCN(C(=O)[C@@H]4CC[C@H](C(=O)O)C4)CC3(C)C)oc12 [Example I-512]	19	18	> 2000	> 2000		
CC(C)(C)c1cc(-c2ccc(Cl)c(F)c2)nc2cc(C(=O)N3CCN(c4cc(C(F)(F)F)cnc4C(=O)O)CC3(C)C)oc12 [Example I-515]	16	21	> 2000	> 2000		
CC(C)(C)c1cc(-c2ccc(Cl)c(F)c2)nc2cc(C(=O)N3CCN(c4nc(-c5ccccc5)ccc4C(=O)O)CC3(C)C)oc12 [Example I-516]	1.8	2.7	> 2000	> 2000		
CC(C)(C)c1cc(-c2ccc(Cl)c(F)c2)nc2cc(C(=O)N3CCN(c4cc(C(=O)O)c(F)cn4)CC3(C)C)oc12 [Example I-517]	1.4	2.3	> 2000	> 2000		
CC(C)(C)c1cc(-c2ccc(Cl)c(F)c2)nc2cc(C(=O)N3CCN(c4ncc(F)cc4C(=O)O)CC3(C)C)oc12 [Example I-518]	10	17	> 2000	> 2000		
CC(C)(C)c1cc(-c2ccc(Cl)c(F)c2)nc2cc(C(=O)N3CCN(c4ncncc4C(=O)O)CC3(C)C)oc12 [Example I-519]	14	26	> 2000	> 2000		
Cc1cnc(N2CCN(C(=O)c3cc4nc(-c5ccc(Cl)c(F)c5)cc(C(C)(C)C)c4o3)C(C)(C)C2)nc1C(=O)O [Example I-520]	0.3	0.4	> 2000	> 2000		
Cc1cnc(N2CCN(C(=O)c3cc4nc(-c5ccc(Cl)cc5)cc(C(C)(C)C)c4o3)C(C)(C)C2)nc1C(=O)O [Example I-521]	0.7	1.2	> 2000	> 2000		
CN1CCN(C(=O)c2cc3nc(-c4ccc(Cl)c(F)c4)cc(C(C)(C)C)c3o2)C(C)(C)CC1=O [Example I-522]	2.5	2.6	> 2000	> 2000		
Cc1cc(C(=O)N2CCN(C(=O)c3cc4nc(C5CCC(C)(C)CC5)cc(C(C)(C)C)c4o3)C(C)(C)C2)[nH]n1 [Example I-523]	2	1.9	> 2000	> 2000		
Cc1ncc(N2CCN(C(=O)c3cc4nc(-c5ccc(Cl)c(F)c5)cc(C(C)(C)C)c4o3)C(C)(C)C2)nc1C(=O)O [Example I-524]	2	2.6	> 2000	> 2000		
Cc1ncc(N2CCN(C(=O)c3cc4nc(C5CCC(C)(C)CC5)cc(C(C)(C)C)c4o3)C(C)(C)C2)nc1C(=O)O [Example I-525]	0.7	1.4			1650	1600
